Experimental findings from patent US8946273B2, “S-Triazolyl alpha-mercapto acetanilides as inhibitors of HIV reverse transcriptase” (priority 2011, dated 2015) are described below.

Test [1] deals with wild type HIV-1. The experiment in a line: microbe, parasite or virus in culture. The class given is cell-based, human immunodeficiency virus type 1 (HIV-1).
In test [2] the target is mutant HIV reverse transcriptases (Human immunodeficiency virus type 1, UniProt P12497, Y768C, cells depend on it). Type of test: cell-based.
In test [3] the target is mutant HIV reverse transcriptases (Human immunodeficiency virus type 1, UniProt P12497, Y775L, cells depend on it). The class given is cell-based.
Test [4] concerns the target T1, wild-type HIV reverse transcriptase (Human immunodeficiency virus type 1 group M subtype B, UniProt P04585).
T1 construct: wild-type and four mutant HIV reverse transcriptases
Briefly: Activity on wild type reverse transcriptase (Table 1 IC50 WT). The class given is biochemical.

Where [5] appears, read: Human immunodeficiency virus 1, Hela-JC53, read-out: EC50 WT.
The mark [6] stands for this setting: read-out: EC50 WT, wild-type (WT) HIV-1.
[7] abbreviates: read-out: IC50 WT RT, wild-type (WT) RT.

SMILES strings stand for the structures. Like-named read-outs stand apart in the source and are kept apart here. Where only a bound is given, the exact number is not on record here.

Regarding `Cc1cc(S(N)(=O)=O)ccc1NC(=O)CSc1nnc(Br)n1-c1c(Cl)cc(C2CCC2)c2ccccc12` [compound 92], the concentration giving a half-maximal response (EC50) in test [1] (setting [5]), in test [2] and in test [3] was less than 50 nM each time. In test [4], this compound yielded an IC50 of less than 50 nM.

With `CCc1ccc(-n2c(Br)nnc2SCC(=O)Nc2ccc(C(=O)NCC(=O)OC)cc2Cl)c2ccccc12` [compound 98], the half-maximal effective concentration (EC50) in test [1] (setting [5]), in test [2] and in test [3] was less than 50 nM in each case. The same compound gave an IC50 in test [4] of less than 50 nM.

For `NS(=O)(=O)c1ccc(NC(=O)CSc2nnc(C(F)F)n2-c2ccc(C3CCCC3)c3ccccc23)c(Cl)c1` [compound 99], the EC50 in test [1] (setting [6]) is less than 50 nM; in test [2], less than 50 nM; in test [3] it was greater than 100 nM. Moreover, the IC50 in test [4] (setting [7]) is less than 50 nM.

Consider `NS(=O)(=O)c1ccc(NC(=O)CSc2nnc(C(F)F)n2-c2ccc(C3CCC3)c3ccccc23)c(Cl)c1` [compound 100], for which the half-maximal effective concentration (EC50) in test [1] (setting [6]), in test [2] and in test [3] was less than 50 nM each time. The IC50 in test [4] (setting [7]) is less than 50 nM.

Consider `CCOC(=O)CNC(=O)c1ccc(NC(=O)CSc2nnc(Br)n2-c2ccc(C3CC3)c3ccccc23)c(Cl)c1` [compound 101], for which the concentration for a half-maximal effect (EC50) in test [1] (setting [5]), in test [2] and in test [3] was less than 50 nM each time. The IC50 in test [4] was less than 50 nM.

In the case of `CCc1ccc(-n2c(Br)nnc2SCC(=O)Nc2ccc(C(=O)N[C@H](C(=O)OC)C(C)C)cc2Cl)c2ccccc12` [compound 102], the concentration giving a half-maximal response (EC50) in test [1] (setting [5]), in test [2] and in test [3] was less than 50 nM throughout. For the same compound, the concentration for half-maximal inhibition (IC50) in test [4] is 50 to 100 nM.

Take `COC(=O)[C@@H](NC(=O)c1ccc(NC(=O)CSc2nnc(Br)n2-c2ccc(C3CC3)c3ccccc23)c(Cl)c1)C(C)C` [compound 103]: the EC50 in test [1] (setting [5]) is less than 50 nM; in test [2], less than 50 nM; in test [3], 50 to 100 nM. The same compound showed an IC50 in test [4] of less than 50 nM.

For `CCOC(=O)CCNC(=O)c1ccc(NC(=O)CSc2nnc(Br)n2-c2ccc(C3CC3)c3ccccc23)c(Cl)c1` [compound 104], the 50% effective concentration (EC50) in test [1] (setting [5]), in test [2] and in test [3] was less than 50 nM each time. Moreover, the 50% inhibitory concentration (IC50) in test [4] was less than 50 nM.

As for `CCc1ccc(-n2c(Br)nnc2SCC(=O)Nc2ccc(C(=O)NCC(=O)O)cc2Cl)c2ccccc12` [compound 105], the figures for the EC50 in test [1] (setting [5]), in test [2] and in test [3] were less than 50 nM, less than 50 nM and 50 to 100 nM, respectively. This compound showed a half-maximal inhibitory concentration (IC50) in test [4] of less than 50 nM.

For `CC(C)[C@H](NC(=O)c1ccc(NC(=O)CSc2nnc(Br)n2-c2ccc(C3CC3)c3ccccc23)c(Cl)c1)C(=O)O` [compound 106], the results for the 50% effective concentration (EC50) in test [1] (setting [5]), in test [2] and in test [3] were less than 50 nM, greater than 100 nM and 50 to 100 nM, respectively. The compound further yielded a half-maximal inhibitory concentration (IC50) in test [4] of 50 to 100 nM.

As for `CCOC(=O)CCNC(=O)c1ccc(NC(=O)CSc2nnc(Br)n2-c2ccc(CC)c3ccccc23)c(Cl)c1` [compound 107], the results for the half-maximal effective concentration (EC50) in test [1] (setting [5]), in test [2] and in test [3] were less than 50 nM, less than 50 nM and greater than 100 nM, respectively. Moreover, the IC50 in test [4] is less than 50 nM.

Regarding `CCOC(=O)CN(C)C(=O)c1ccc(NC(=O)CSc2nnc(Br)n2-c2ccc(CC)c3ccccc23)c(Cl)c1` [compound 108], the EC50 in test [1] (setting [5]), in test [2] and in test [3] was less than 50 nM throughout. For the same compound, in test [4], the half-maximal inhibitory concentration (IC50) is less than 50 nM.

With `CCOC(=O)CN(C)C(=O)c1ccc(NC(=O)CSc2nnc(Br)n2-c2ccc(C3CC3)c3ccccc23)c(Cl)c1` [compound 109], the concentration giving a half-maximal response (EC50) in test [1] (setting [5]), in test [2] and in test [3] was less than 50 nM in each case. In test [4], the IC50 fell in the range of 50 to 100 nM.

`O=C(O)CNC(=O)c1ccc(NC(=O)CSc2nnc(Br)n2-c2ccc(C3CC3)c3ccccc23)c(Cl)c1` [compound 110]: the results for the EC50 in test [1] (setting [5]), in test [2] and in test [3] were less than 50 nM, greater than 100 nM and greater than 100 nM, respectively. In test [4], this compound yielded an IC50 of less than 50 nM.

`CN(CC(=O)O)C(=O)c1ccc(NC(=O)CSc2nnc(Br)n2-c2ccc(C3CC3)c3ccccc23)c(Cl)c1` [compound 111]: the EC50 in test [1] (setting [5]) is 50 to 100 nM; in test [2], greater than 100 nM; in test [3], greater than 100 nM. Further, the IC50 in test [4] was less than 50 nM.

As for `O=C(O)CCNC(=O)c1ccc(NC(=O)CSc2nnc(Br)n2-c2ccc(C3CC3)c3ccccc23)c(Cl)c1` [compound 112], the EC50 was less than 50 nM in test [1] (setting [5]), greater than 100 nM in test [2] and greater than 100 nM in test [3]. The same compound returned a 50% inhibitory concentration (IC50) in test [4] of less than 50 nM.

As for `COc1ccc2c(C3CC3)ccc(-n3c(Br)nnc3SCC(=O)Nc3ccc(S(=O)(=O)O)cc3Cl)c2c1` [compound 113], the values for the concentration for a half-maximal effect (EC50) in test [1] (setting [5]), in test [2] and in test [3] were 50 to 100 nM, 50 to 100 nM and greater than 100 nM, respectively. Also, the IC50 in test [4] is less than 50 nM.

For the compound `CCOC(=O)[C@H](Cc1ccc(O)cc1)NC(=O)c1ccc(NC(=O)CSc2nnc(Br)n2-c2ccc(C3CC3)c3ccccc23)c(Cl)c1` [compound 114], the EC50 was less than 50 nM in test [1] (setting [5]), less than 50 nM in test [2] and greater than 100 nM in test [3]. The IC50 in test [4] lay in the range of 50 to 100 nM.

With `COC(=O)[C@H](CC(C)C)NC(=O)c1ccc(NC(=O)CSc2nnc(Br)n2-c2ccc(C3CC3)c3ccccc23)c(Cl)c1` [compound 115], the EC50 was less than 50 nM in test [1] (setting [5]), less than 50 nM in test [2] and 50 to 100 nM in test [3]. Further, in test [4], the IC50 is less than 50 nM.

Consider `O=C(CSc1nnc(Br)n1-c1ccc(C2CC2)c2ccccc12)Nc1ccc(C(=O)N[C@@H](Cc2ccc(O)cc2)C(=O)O)cc1Cl` [compound 116], for which the EC50 is 50 to 100 nM in test [1] (setting [5]), greater than 100 nM in test [2] and greater than 100 nM in test [3]. Further, in test [4], the IC50 was less than 50 nM.

As for `CC(C)C[C@H](NC(=O)c1ccc(NC(=O)CSc2nnc(Br)n2-c2ccc(C3CC3)c3ccccc23)c(Cl)c1)C(=O)O` [compound 117], the EC50 was less than 50 nM in test [1] (setting [5]), 50 to 100 nM in test [2] and greater than 100 nM in test [3]. Also, the concentration for half-maximal inhibition (IC50) in test [4] is less than 50 nM.

For `CCc1ccc(-n2c(Br)nnc2SCC(=O)Nc2ccc(C(=O)NCC(OC)OC)cc2Cl)c2ccccc12` [compound 118], the 50% effective concentration (EC50) in test [1] (setting [5]), in test [2] and in test [3] was less than 50 nM each time. Moreover, in test [4], the IC50 was less than 50 nM.

Regarding `CCc1ccc(-n2c(Br)nnc2SCC(=O)Nc2ccc(C(=O)NCCN(C)C)cc2Cl)c2ccccc12` [compound 119], the 50% effective concentration (EC50) in test [1] (setting [5]), in test [2] and in test [3] was less than 50 nM throughout. In addition, in test [4], the IC50 is less than 50 nM.

For the compound `CCc1ccc(-n2c(Br)nnc2SCC(=O)Nc2ccc(C(=O)NCC(O)CO)cc2Cl)c2ccccc12` (centres unmarked) [compound 120], the half-maximal effective concentration (EC50) in test [1] (setting [5]), in test [2] and in test [3] was less than 50 nM each time. In test [4], this compound showed a concentration for half-maximal inhibition (IC50) of less than 50 nM.

As to `CCCCNC(=O)c1ccc(NC(=O)CSc2nnc(Br)n2-c2ccc(CC)c3ccccc23)c(Cl)c1` [compound 121], the concentration for a half-maximal effect (EC50) in test [1] (setting [5]), in test [2] and in test [3] was less than 50 nM throughout. In test [4], this compound registered a half-maximal inhibitory concentration (IC50) of 50 to 100 nM.

Consider `CCCCCCNC(=O)c1ccc(NC(=O)CSc2nnc(Br)n2-c2ccc(CC)c3ccccc23)c(Cl)c1` [compound 122], for which the 50% effective concentration (EC50) in test [1] (setting [5]) is less than 50 nM; in test [2] it was less than 50 nM; in test [3] it was 50 to 100 nM. Besides, the IC50 in test [4] is less than 50 nM.

With `CCc1ccc(-n2c(Br)nnc2SCC(=O)Nc2ccc(C(=O)NCCN3CCCC3)cc2Cl)c2ccccc12` [compound 123], the EC50 in test [1] (setting [5]), in test [2] and in test [3] was less than 50 nM each time. In test [4], the IC50 was less than 50 nM.

For `CCc1ccc(-n2c(Br)nnc2SCC(=O)Nc2ccc(C(=O)NCC3CCCCC3)cc2Cl)c2ccccc12` [compound 124], the EC50 in test [1] (setting [5]), in test [2] and in test [3] was less than 50 nM each time. In test [4], this compound yielded an IC50 of less than 50 nM.

For the compound `CCc1ccc(-n2c(Br)nnc2SCC(=O)Nc2ccc(C(=O)NCC3CCCO3)cc2Cl)c2ccccc12` (centres unmarked) [compound 125], the EC50 in test [1] (setting [5]), in test [2] and in test [3] was less than 50 nM throughout. Moreover, the concentration for half-maximal inhibition (IC50) in test [4] was less than 50 nM.

In the case of `CCOC(=O)N1CCC(NC(=O)c2ccc(NC(=O)CSc3nnc(Br)n3-c3ccc(CC)c4ccccc34)c(Cl)c2)CC1` [compound 126], the concentration giving a half-maximal response (EC50) in test [1] (setting [5]), in test [2] and in test [3] was less than 50 nM each time. The IC50 in test [4] is less than 50 nM.

As for `CCc1ccc(-n2c(Br)nnc2SCC(=O)Nc2ccc(C(=O)NCCOC)cc2Cl)c2ccccc12` [compound 127], the EC50 in test [1] (setting [5]), in test [2] and in test [3] was less than 50 nM each time. In test [4], this compound displayed an IC50 of less than 50 nM.

`CCc1ccc(-n2c(Br)nnc2SCC(=O)Nc2ccc(C(=O)NCC(C)O)cc2Cl)c2ccccc12` (centres unmarked) [compound 128]: the EC50 in test [1] (setting [5]), in test [2] and in test [3] was less than 50 nM throughout. The same compound had an IC50 in test [4] of less than 50 nM.

For the compound `CC(C)OC(=O)CNC(=O)c1ccc(NC(=O)CSc2nnc(Br)n2-c2ccc(C3CC3)c3ccccc23)c(Cl)c1` [compound 129], the 50% effective concentration (EC50) in test [1] (setting [5]), in test [2] and in test [3] was less than 50 nM each time. The compound further gave a 50% inhibitory concentration (IC50) in test [4] of less than 50 nM.

In the case of `CCc1ccc(-n2c(Br)nnc2SCC(=O)Nc2ccc(C(=O)NCCC#N)cc2Cl)c2ccccc12` [compound 130], the EC50 in test [1] (setting [5]), in test [2] and in test [3] was less than 50 nM in each case. This compound gave an IC50 in test [4] of less than 50 nM.

As for `CCNC(=O)c1ccc(NC(=O)CSc2nnc(Br)n2-c2ccc(CC)c3ccccc23)c(Cl)c1` [compound 131], the concentration for a half-maximal effect (EC50) in test [1] (setting [5]), in test [2] and in test [3] was less than 50 nM throughout. The compound also registered a half-maximal inhibitory concentration (IC50) in test [4] of less than 50 nM.
